Tests used:
Assay type in all cases: in vivo
[1] = tested on: ragweed (common ragweed, Ambrosia elatior); assay: Test A preemergence; details: Ambrosia artemisiifolia, pre-emergence, 240 h
How it was run: (§1)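 In a loam soil and sand blend, planted seeds got a preemergence directed soil spray, and young plants at the one- to two-leaf stage, 2–10 cm high, got a postemergence application; ~10 d greenhouse hold; injury rated visually, 0 = none, 100 = complete control.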

Kochia (Kochia scoparia) [2] = assay: Test A preemergence; details: Bassia scoparia, pre-emergence, 240 h
How it was run: as §1

[3] = tested on: barnyardgrass (Echinochloa crus-galli); assay: Test A preemergence; details: Echinochloa crus-galli, pre-emergence, 240 h
How it was run: as §1

[4] = tested on: pigweed (Amaranthus retroflexus); assay: Test A preemergence; details: Amaranthus retroflexus, pre-emergence, 240 h
[5] = tested on: ryegrass, Italian (Italian ryegrass, Lolium multiflorum); assay: Test A preemergence; details: Lolium multiflorum, pre-emergence, 240 h
How it was run: as §1

[6] = tested on: ragweed (common ragweed, Ambrosia elatior); assay: Test A postemergence; details: Ambrosia artemisiifolia, post-emergence, 240 h, 125 g ai/ha, postemergence, visual injury rating after approximately 10 d; read-out: Ragweed plant response rating (0 to 100 scale, 0 no effect, 100 complete control)
How it was run: as §1

Kochia (Kochia scoparia) [7] = assay: Test A postemergence; details: Bassia scoparia, post-emergence, 240 h, 125 g ai/ha, postemergence, visual injury rating after approximately 10 d; read-out: Kochia plant response rating (0 to 100 scale, 0 no effect, 100 complete control)
How it was run: as §1

[8] = tested on: blackgrass (Alopecurus myosuroides); assay: Test A postemergence; details: Alopecurus myosuroides, post-emergence, 240 h, 125 g ai/ha, postemergence, visual injury rating after approximately 10 d; read-out: Blackgrass plant response rating (0 to 100 scale, 0 no effect, 100 complete control)
How it was run: as §1

[9] = tested on: giant foxtail (Setaria faberii); assay: Test A postemergence; details: Setaria faberi, post-emergence, 240 h, 125 g ai/ha, postemergence, visual injury rating after approximately 10 d; read-out: Foxtail, Giant plant response rating (0 to 100 scale, 0 no effect, 100 complete control)
How it was run: as §1

[10] = tested on: Galium (catchweed bedstraw, Galium aparine); assay: Test A postemergence; details: Galium, post-emergence, 240 h, 125 g ai/ha, postemergence, visual injury rating after approximately 10 d; read-out: Galium plant response rating (0 to 100 scale, 0 no effect, 100 complete control)
How it was run: as §1

[11] = tested on: wheat (Triticum aestivum); assay: Test A postemergence; details: Triticum aestivum, post-emergence, 240 h, 125 g ai/ha, postemergence, visual injury rating after approximately 10 d; read-out: Wheat plant response rating (0 to 100 scale, 0 no effect, 100 complete control)
How it was run: as §1

corn (Zea mays) = assay: Test A postemergence; details: Zea mays, post-emergence, 240 h, 125 g ai/ha, postemergence, visual injury rating after approximately 10 d; read-out: Corn plant response rating (0 to 100 scale, 0 no effect, 100 complete control)
How it was run: as §1

[12] = tested on: barnyardgrass (Echinochloa crus-galli); assay: Test A postemergence; details: Echinochloa crus-galli, post-emergence, 240 h, 125 g ai/ha, postemergence, visual injury rating after approximately 10 d; read-out: Barnyardgrass plant response rating (0 to 100 scale, 0 no effect, 100 complete control)
How it was run: as §1

[13] = tested on: pigweed (Amaranthus retroflexus); assay: Test A postemergence; details: Amaranthus retroflexus, post-emergence, 240 h, 125 g ai/ha, postemergence, visual injury rating after approximately 10 d; read-out: Pigweed plant response rating (0 to 100 scale, 0 no effect, 100 complete control)
How it was run: as §1

[14] = tested on: ryegrass, Italian (Italian ryegrass, Lolium multiflorum); assay: Test A postemergence; details: Lolium multiflorum, post-emergence, 240 h, 125 g ai/ha, postemergence, visual injury rating after approximately 10 d; read-out: Ryegrass, Italian plant response rating (0 to 100 scale, 0 no effect, 100 complete control)
How it was run: as §1

COc1c(F)ccc([C@H]2CN(C)C(=O)[C@@H]2C(=O)Nc2ccc(F)c(F)c2F)c1Cl [Compound 895]
pest or weed control at 125 g/ha ([1]; 125 g ai/ha, preemergence, 0 to 100 scale where 0 is no effect and 100 is complete control, read-out: Ragweed plant response rating): 0% | pest or weed control at 500 g/ha ([1]; 500 g ai/ha, Preemergence, visual injury vs untreated controls after approximately 10 d, read-out: Ragweed plant response rating (0 to 100 scale where 0 is no effect and 100 is complete control)): 0% | pest or weed control at 125 g/ha (Kochia (Kochia scoparia) [2]; 125 g ai/ha, preemergence, 0 to 100 scale where 0 is no effect and 100 is complete control, read-out: Kochia plant response rating): 90% | pest or weed control at 500 g/ha (Kochia (Kochia scoparia) [2]; 500 g ai/ha, Preemergence, visual injury vs untreated controls after approximately 10 d, read-out: Kochia plant response rating (0 to 100 scale where 0 is no effect and 100 is complete control)): 90% | pest or weed control at 125 g/ha ([3]; 125 g ai/ha, preemergence, 0 to 100 scale where 0 is no effect and 100 is complete control, read-out: Barnyardgrass plant response rating): 90% | pest or weed control at 500 g/ha ([3]; 500 g ai/ha, Preemergence, visual injury vs untreated controls after approximately 10 d, read-out: Barnyardgrass plant response rating (0 to 100 scale where 0 is no effect and 100 is complete control)): 100% | pest or weed control at 125 g/ha ([4]; 125 g ai/ha, preemergence, 0 to 100 scale where 0 is no effect and 100 is complete control, read-out: Pigweed plant response rating): 50% | pest or weed control at 500 g/ha ([4]; 500 g ai/ha, Preemergence, visual injury vs untreated controls after approximately 10 d, read-out: Pigweed plant response rating (0 to 100 scale where 0 is no effect and 100 is complete control)): 50% | pest or weed control at 125 g/ha ([5]; 125 g ai/ha, preemergence, 0 to 100 scale where 0 is no effect and 100 is complete control, read-out: Ryegrass, Italian plant response rating): 90% | pest or weed control at 500 g/ha ([5]; 500 g ai/ha, Preemergence, visual injury vs untreated controls after approximately 10 d, read-out: Ryegrass, Italian plant response rating (0 to 100 scale where 0 is no effect and 100 is complete control)): 70% | pest or weed control at 125 g/ha [6]: 0% | pest or weed control at 125 g/ha (Kochia (Kochia scoparia) [7]): 70% | pest or weed control at 125 g/ha [8]: 60% | pest or weed control at 125 g/ha [9]: 90% | pest or weed control at 125 g/ha [10]: 70% | plant injury at 125 g/ha [11]: 40% | plant injury at 125 g/ha (corn (Zea mays)): 80% | pest or weed control at 125 g/ha [12]: 90% | pest or weed control at 125 g/ha [13]: 40% | pest or weed control at 125 g/ha [14]: 60%

From patent US12077503B2, “Substituted cyclic amides and their use as herbicides” (FMC CORPORATION, priority 2015, dated 2024)
